Source: ChEMBL document CHEMBL1629472, “2-Acetylpyridine thiosemicarbazones: cytotoxic activity in nanomolar doses against malignant gliomas” (Eur J Med Chem, 2010)

Experiments:
[1] = Cytotoxicity against rat RT2 cells expressing wild type p53 after 48 hrs by MTT assay; type: functional, cell-based; settings: RT2, 48 h
[2] = Cytotoxicity against human T98 cells expressing p53 mutant after 48 hrs by MTT assay; type: functional, cell-based; settings: T98, 48 h
[3] = Cytotoxicity against erythrocytes assessed as hemolysis; type: cell-based; settings: erythrocyte

| SMILES | IC50 [1] [nM] | IC50 [2] [nM] | Hemolytic concentration [3] [mM] |
| --- | --- | --- | --- |
| C/C(=N\NC(=S)Nc1ccc(Cl)cc1)c1ccccn1 | 3.7 | 5.9 | > 1 |
| C/C(=N\NC(=S)Nc1ccccc1Cl)c1ccccn1 | 1.4 | 1.1 | > 1 |
| C/C(=N\NC(=S)Nc1cccc(Cl)c1)c1ccccn1 | 9 | 1 | > 1 |
| C/C(=N\NC(=S)Nc1ccccc1C)c1ccccn1 | 14 | 34 | > 1 |
| C/C(=N\NC(=S)Nc1cccc(C)c1)c1ccccn1 | 24 | 50 | > 1 |
| C/C(=N\NC(=S)Nc1ccc(C)cc1)c1ccccn1 | 17 | 37 | > 1 |
| C/C(=N\NC(=S)Nc1ccccc1)c1ccccn1 | 1.4 | 6.8 | > 1 |
